Measurements as given in ChEMBL document CHEMBL6103622 (J Med Chem, 2025).
Calls of active or inactive are those of the source. The calls are words filed in the database; no cut-off is given here.

Tests used:
[1] = target: Macrophage colony-stimulating factor 1 receptor (Homo sapiens, UniProt P07333); assay: Inhibition of CSF-1R (unknown origin)
MC-38 [2] = assay: Induction of apoptosis in mouse MC38 cells cocultured with condition medium of M2 macrophages assessed as early apoptotic cells at 100 nM by Annexin V/PI staining based flow cytometric analysis (reference value: 3.16 %); type: functional
MC-38 [3] = assay: Induction of apoptosis in mouse MC38 cells cocultured with condition medium of M2 macrophages assessed as late apoptotic cells at 100 nM by Annexin V/PI staining based flow cytometric analysis (reference value: 1.66 %); type: functional
MC-38 [4] = assay: Induction of apoptosis in mouse MC38 cells assessed as early apoptotic cells at 100 nM by Annexin V/PI staining based flow cytometric analysis (reference value: 1.91 %); type: functional
MC-38 [5] = assay: Induction of apoptosis in mouse MC38 cells assessed as late apoptotic cells at 100 nM by Annexin V/PI staining based flow cytometric analysis (reference value: 0.85 %); type: functional
[6] = target: T1, Macrophage colony-stimulating factor 1 receptor (Mus musculus) (UniProt P09581); assay: Inhibition of CSF-1R signaling pathway activation in female C57BL/6 mouse BMDM cells assessed as reduction in CSF-1R phosphorylation at 100 nM preincubated with compounds for 4 hrs followed by M-CSF stimulation and measured after 30 mins by Western blot analysis; type: cell-based; settings: time 4.5 hrs
T1 sequence (whole entry): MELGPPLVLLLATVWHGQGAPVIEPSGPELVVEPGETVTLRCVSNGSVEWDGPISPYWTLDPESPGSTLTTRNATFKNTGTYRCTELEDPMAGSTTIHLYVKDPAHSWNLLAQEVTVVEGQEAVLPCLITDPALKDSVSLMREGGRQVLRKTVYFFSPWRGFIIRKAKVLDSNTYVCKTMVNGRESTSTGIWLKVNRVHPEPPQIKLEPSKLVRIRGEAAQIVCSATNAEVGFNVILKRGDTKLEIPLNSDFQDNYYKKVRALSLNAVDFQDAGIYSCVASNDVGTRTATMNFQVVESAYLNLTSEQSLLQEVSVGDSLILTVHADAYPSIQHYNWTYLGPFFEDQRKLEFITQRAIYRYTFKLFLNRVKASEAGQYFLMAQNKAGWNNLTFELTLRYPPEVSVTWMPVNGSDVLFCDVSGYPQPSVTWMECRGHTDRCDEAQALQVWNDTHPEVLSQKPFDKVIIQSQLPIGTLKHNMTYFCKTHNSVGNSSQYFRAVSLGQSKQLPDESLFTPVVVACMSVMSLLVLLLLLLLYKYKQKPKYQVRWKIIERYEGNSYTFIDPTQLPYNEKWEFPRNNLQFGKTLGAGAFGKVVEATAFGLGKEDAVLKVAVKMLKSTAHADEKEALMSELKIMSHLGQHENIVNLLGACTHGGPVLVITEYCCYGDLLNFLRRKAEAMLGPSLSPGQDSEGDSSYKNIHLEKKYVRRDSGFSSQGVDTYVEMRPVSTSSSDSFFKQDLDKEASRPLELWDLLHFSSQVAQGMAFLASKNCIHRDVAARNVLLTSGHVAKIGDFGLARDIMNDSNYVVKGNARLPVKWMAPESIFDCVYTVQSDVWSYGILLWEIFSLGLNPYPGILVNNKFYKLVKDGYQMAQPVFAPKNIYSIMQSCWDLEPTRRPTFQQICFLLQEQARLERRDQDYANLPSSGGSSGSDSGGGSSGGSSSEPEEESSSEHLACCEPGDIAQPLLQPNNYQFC

[7] = target: T1, Macrophage colony-stimulating factor 1 receptor (Mus musculus); assay: Inhibition of CSF-1R signaling pathway activation in female C57BL/6 mouse BMDM cells assessed as reduction in CSF-1R phosphorylation at Tyr723 residue at 100 nM preincubated with compounds for 4 hrs followed by M-CSF stimulation and measured after 30 mins by Western blot analysis; type: cell-based; settings: time 4.5 hrs
[8] = target: T1, Macrophage colony-stimulating factor 1 receptor (Mus musculus); assay: Inhibition of CSF-1R signaling pathway activation in female C57BL/6 mouse BMDM cells assessed as reduction in AKT phosphorylation at Ser473 residue at 100 nM preincubated with compounds for 4 hrs followed by M-CSF stimulation and measured after 30 mins by Western blot analysis; type: cell-based; settings: time 4.5 hrs

Macrophage colony-stimulating factor 1 receptor, sequence (P07333 whole entry): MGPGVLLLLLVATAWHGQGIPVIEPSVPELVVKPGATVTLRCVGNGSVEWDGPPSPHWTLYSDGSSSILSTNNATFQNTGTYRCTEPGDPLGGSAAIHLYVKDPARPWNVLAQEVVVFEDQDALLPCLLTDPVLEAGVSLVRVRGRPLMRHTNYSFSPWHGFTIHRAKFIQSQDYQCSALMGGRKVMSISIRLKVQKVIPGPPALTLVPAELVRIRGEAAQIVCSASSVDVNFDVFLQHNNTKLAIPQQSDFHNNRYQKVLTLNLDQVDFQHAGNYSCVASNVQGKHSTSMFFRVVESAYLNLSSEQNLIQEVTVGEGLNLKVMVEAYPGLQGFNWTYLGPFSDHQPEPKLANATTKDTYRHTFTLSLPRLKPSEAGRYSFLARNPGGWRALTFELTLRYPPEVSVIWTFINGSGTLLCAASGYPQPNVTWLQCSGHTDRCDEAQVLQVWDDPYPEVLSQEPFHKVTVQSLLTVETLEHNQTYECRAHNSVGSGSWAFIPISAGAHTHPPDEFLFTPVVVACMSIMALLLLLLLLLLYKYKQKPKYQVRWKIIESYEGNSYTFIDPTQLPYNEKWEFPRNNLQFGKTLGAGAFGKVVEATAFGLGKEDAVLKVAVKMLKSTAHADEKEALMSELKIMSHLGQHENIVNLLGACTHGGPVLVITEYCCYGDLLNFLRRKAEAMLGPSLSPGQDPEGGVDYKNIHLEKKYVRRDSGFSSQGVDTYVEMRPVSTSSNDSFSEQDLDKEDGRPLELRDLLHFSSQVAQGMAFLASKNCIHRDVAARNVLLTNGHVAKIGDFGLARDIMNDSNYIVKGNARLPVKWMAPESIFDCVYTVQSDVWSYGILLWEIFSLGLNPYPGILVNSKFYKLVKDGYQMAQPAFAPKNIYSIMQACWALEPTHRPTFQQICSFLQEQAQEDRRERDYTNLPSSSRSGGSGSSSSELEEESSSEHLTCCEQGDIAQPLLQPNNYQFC

Row | SMILES | IC50 [1] | other results
1 | Cc1nc(NC(=O)Nc2cccc(C(F)(F)F)c2)ccc1Oc1c[nH]c2ncc(Cl)cc12 | 372 nM | –
2 | Cc1nc(NC(=O)Nc2ccc(F)cc2)ccc1Oc1c[nH]c2ncc(Cl)cc12 | 85.6 nM | –
3 | FC(F)(F)c1ccc(CNc2ccc(Cc3c[nH]c4ncc(Cl)cc34)cn2)cn1 [PEXIDARTINIB] | – | Activity (MC-38 [2]): 8.49%; Activity (MC-38 [3]): 2.25%; Activity (MC-38 [4]): 1.8%; Activity (MC-38 [5]): 0.83%
4 | O[C@@H]1CCCC[C@H]1Nc1nc2ccc(Oc3c[nH]c4ncc(F)cc34)cc2s1 | 30.6 nM | inhibition [6]: Active; Weak Inhibitory Effect Observed
5 | Cc1nc(NC(=O)Nc2ccc(C(F)(F)F)cc2)ccc1Oc1c[nH]c2ncc(Cl)cc12 | 48.9 nM | –
6 | O=C(Nc1ccc(Oc2c[nH]c3ncc(Cl)cc23)cc1)N[C@@H]1CCCC[C@H]1O | 43.5 nM | –
7 | Cc1nc(NC(=O)Nc2cc(C(C)(C)C)no2)ccc1Oc1c[nH]c2ncc(Cl)cc12 | > 1000 nM | –
8 | Cc1nc(NC(=O)Nc2cccc(Cl)c2)ccc1Oc1c[nH]c2ncc(Cl)cc12 | 34.6 nM | inhibition [7]: Active; Minimal Effect Observed; inhibition [8]: Active; Minimal Effect Observed
9 | Cc1nc(NC(=O)Nc2ccc(N3CCN(C)CC3)cc2)ccc1Oc1c[nH]c2ncc(Cl)cc12 | 593 nM | –
10 | O[C@@H]1CCCC[C@H]1Nc1nc2ccc(Cc3c[nH]c4ncc(Cl)cc34)cc2s1 | 49.4 nM | inhibition [6]: Active; Weak Inhibitory Effect Observed
11 | O[C@@H]1CCCC[C@H]1Nc1nc2ccc(Oc3c[nH]c4nccc(F)c34)cc2s1 | 41.4 nM | –
12 | Cc1nc(NC(=O)Nc2ccc(C(F)(F)F)nc2)ccc1Oc1c[nH]c2ncc(Cl)cc12 | 152 nM | –
13 | FC(F)(F)c1ccc(Nc2nc3ccc(Oc4c[nH]c5ncc(Cl)cc45)cc3s2)cc1 | 56.5 nM | –
14 | Cc1nc(NC(=O)NCc2ccc(C(F)(F)F)nc2)ccc1Oc1c[nH]c2ncc(Cl)cc12 | 406 nM | –
15 | Cc1nc(NC(=O)Nc2ccc(C(C)(C)C)c(Cl)c2)ccc1Oc1c[nH]c2ncc(Cl)cc12 | > 1000 nM | –
16 | OC[C@H](Nc1nc2ccc(Oc3c[nH]c4ncc(Cl)cc34)cc2s1)C1CCCCC1 | > 1000 nM | –
17 | O[C@@H]1CCCC[C@H]1Nc1nc2ccc(Oc3c[nH]c4ncc(Cl)cc34)cc2s1 | 25.8 nM | inhibition [6]: Active; Weak Inhibitory Effect Observed
18 | COc1cc(NC(=O)Nc2ccc(Oc3c[nH]c4ncc(Cl)cc34)c(C)n2)cc(OC)c1OC | 23.8 nM | inhibition [7]: Active; Minimal Effect Observed; inhibition [8]: Active; Minimal Effect Observed
19 | COc1cc(NC(=O)Nc2ccc(Oc3c[nH]c4ncc(Cl)cc34)c(C)n2)ccc1C(F)(F)F | 131 nM | –
